Assay results: US20250051327A1, “MALT-1 MODULATORS” (EXSCIENTIA AI LIMITED, priority 2020, published 2025)

molecular target: Recombinant human MALT-1 (amino acids 340-824) (Homo sapiens (Human), UniProt Q9UDY8); assay: MALT-1 inhibition assay (fluorogenic substrate Ac-LRSR-Rh110-DP); assay type: biochemical; settings: recombinant human MALT-1, substrate Ac-LRSR-Rh110-DP
Description: MALT-1 paracaspase activity was measured using the fluorogenic substrate Ac-LRSR-Rh110-DP (purchased from Biosantan GmbH). […] The reaction was initiated by addition of substrate. Final concentrations of MALT-1 and substrate were 3 nM and 10 μM respectively. Reactions were incubated in the dark for 60 minutes at 25° C. […] Percent inhibition values were calculated from relative fluorescence units at different doses and fitted to a 4-parameter logistic curve to determine IC50 values (see Table 1).

Chain of Recombinant human MALT-1 (amino acids 340-824) (Q9UDY8 340-824): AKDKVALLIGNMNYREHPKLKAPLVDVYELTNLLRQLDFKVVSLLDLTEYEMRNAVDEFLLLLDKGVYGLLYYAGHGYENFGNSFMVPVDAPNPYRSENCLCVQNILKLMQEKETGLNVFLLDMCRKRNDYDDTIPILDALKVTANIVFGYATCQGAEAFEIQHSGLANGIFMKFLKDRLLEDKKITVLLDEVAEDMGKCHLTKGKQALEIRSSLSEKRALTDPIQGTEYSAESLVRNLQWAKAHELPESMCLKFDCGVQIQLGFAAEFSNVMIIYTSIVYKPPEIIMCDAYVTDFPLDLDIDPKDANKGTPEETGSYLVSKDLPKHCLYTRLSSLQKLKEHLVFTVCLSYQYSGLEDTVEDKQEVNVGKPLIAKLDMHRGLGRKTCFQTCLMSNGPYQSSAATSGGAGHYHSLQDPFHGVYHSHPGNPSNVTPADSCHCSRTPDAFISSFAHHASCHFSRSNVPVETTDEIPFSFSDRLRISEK

In order of falling IC50:
1. COc1ccc2ncc(Nc3ccc([C@H](N(C)C(=O)C4CCS(=O)(=O)CC4)C(F)(F)F)cc3)c(C(=O)N3CCC3)c2n1 [CPD0074046, N-[(1S)-1-[4-[[4-(azetidine-1-carbonyl)-6-methoxy-1,5-naphthyridin-3-yl]amino]phenyl]-2,2,2-trifluoro-ethyl]-N-methyl-1,1-dioxo-thiane-4-carboxamide]  494 nM
2. C[C@H]1CCc2c(cnc3cc(Cl)nn23)N1c1ccc([C@H](N(C)C(=O)[C@H]2CC[S@@](=N)(=O)CC2)C(F)(F)F)cc1 (relative stereo) [CPD0074565, (1rel s 4rel s) N-[(1S)-1-[4-[(11-rel S)-4-chloro-11-methyl-2,3,7,10-tetrazatricyclo[7.4.0.0^2,6]trideca-1(9),3,5,7-tetraen-10-yl]phenyl]-2,2,2-trifluoro-ethyl]-1-imino-N-methyl-1-oxo-thiane-4-carboxamide]  377 nM
3. CN(C(=O)[C@@H]1CNC(=O)C1)[C@H](c1ccc(N2CCCc3c2cnc2cc(Cl)nn32)cc1)C(F)(F)F (stereo in doubt) [CPD0077245, (3 rel-S)—N-[(1R)-1-[4-(4-chloro-2,3,7,10-tetrazatricyclo[7.4.0.0^2,6]trideca-1(9),3,5,7-tetraen-10-yl)phenyl]-2,2,2-trifluoro-ethyl]-N-methyl-5-oxo-pyrrolidine-3-carboxamide]  355 nM
4. COc1ccc2ncc(Nc3ccc([C@@H](N(C)C(=O)[C@H]4CC[S@@](=N)(=O)CC4)C(F)(F)F)cc3)c([C@@H](C)OC)c2n1 (stereo in doubt) [CPD0077188, (1 rel-r,4rel-r)-1-imino-N-methyl-1-oxo-N-[(1R)-2,2,2-trifluoro-1-[4-({6-methoxy-4-[(1 rel-R)-1-methoxyethyl]-1,5-naphthyridin-3-yl}amino)phenyl]ethyl]-1λ^6-thiane-4-carboxamide]  255 nM
5. N-[(1S)-1-[4-[[2-chloro-8-[(1S)-1-methoxyethyl]imidazo[1,2-b]pyridazin-7-yl]amino]phenyl]-2,2,2-trifluoro-ethyl]-N-methyl-1,1-dioxo-thiane-4-carboxamide [CPD0084508]  182 nM
6. COc1ccc2ncc(Nc3ccc([C@H](N(C)C(=O)C4CCS(=O)(=O)CC4)C(F)(F)F)cc3)c(COC3CC3)c2n1 [CPD0074048]  163 nM
7. CC(=O)N1CCC(C(=O)N(C)[C@@H](c2ccc(N3CCCc4c3cnc3cc(Cl)nn43)nc2)C(F)(F)F)CC1 [CPD0074051, 1-acetyl-N-[(1S)-1-[6-(4-chloro-2,3,7,10-tetrazatricyclo[7.4.0.0^2,6]trideca-1(9),3,5,7-tetraen-10-yl)-3-pyridyl]-2,2,2-trifluoro-ethyl]-N-methyl-piperidine-4-carboxamide]  154 nM
8. CN(C(=O)[C@@H]1CCN(C(=O)CO)C1)[C@@H](c1ccc(N2CCCc3c2cnc2cc(F)nn32)cc1)C(F)(F)F [CPD0075879]  154 nM
9. CN(C(=O)[C@H]1CCN(C(=O)CO)C1)[C@@H](c1ccc(N2CCCc3c2cnc2cc(F)nn32)cc1)C(F)(F)F [CPD0075878]  111 nM
10. CN(C(=O)[C@H](O)C1CCS(=O)(=O)CC1)[C@@H](c1ccc(N2CCCc3c2cnc2cc(Cl)nn32)cc1)C(F)(F)F (relative stereo) [CPD0073972, (2rel-R)—N-[(1S)-1-(4-{4-chloro-2,3,7,10-tetraazatricyclo[7.4.0.0^2,6]trideca-1(9),3,5,7-tetraen-10-yl}phenyl)-2,2,2-trifluoroethyl]-2-(1,1-dioxo-1λ^e-thian-4-yl)-2-hydroxy-N-methylacetamide]  109 nM
11. CC(=O)N1CCC(C(=O)N(C)[C@@H](c2ccc(N3CCCc4c3cnc3cc(F)nn43)cc2)C(F)(F)F)CC1 [CPD0074050, 1-acetyl-N-methyl-N-[(1S)-2,2,2-trifluoro-1-(4-{4-fluoro-2,3,7,10-tetraazatricyclo[7.4.0.0^2,6]trideca-1(9),3,5,7-tetraen-10-yl}phenyl)ethyl]piperidine-4-carboxamide]  85 nM
12. C[C@@H]1CCc2c(cnc3cc(Cl)nn23)N1c1ccc([C@H](N(C)C(=O)[C@H]2CC[S@@](=N)(=O)CC2)C(F)(F)F)cc1 (relative stereo) [CPD0074552, (1rel s 4rel s) N-[(1S)-1-[4-[(11-rel R)-4-chloro-11-methyl-2,3,7,10-tetrazatricyclo[7.4.0.0^2,6]trideca-1(9),3,5,7-tetraen-10-yl]phenyl]-2,2,2-trifluoro-ethyl]-1-imino-N-methyl-1-oxo-thiane-4-carboxamide]  78 nM
13. COc1ccc2ncc(Nc3ccc([C@H](N(C)C(=O)C4CCN(C(C)=O)CC4)C(F)(F)F)cc3)c([C@@H]3CCOC3)c2n1 [CPD0082480]  77 nM
14. CN(C(=O)[C@H]1CC(=O)N1)[C@@H](c1ccc(N2CCCc3c2cnc2cc(Cl)nn32)cc1)C(F)(F)F [CPD0075869, (2R)-N-[(1S)-1-[4-(4-chloro-2,3,7,10-tetrazatricyclo[7.4.0.0^2,6]trideca-1(9),3,5,7-tetraen-10-yl)phenyl]-2,2,2-trifluoro-ethyl]-N-methyl-4-oxo-azetidine-2-carboxamide]  75 nM
15. CN(C(=O)[C@H]1CCN(C(=O)C2(O)CC2)C1)[C@@H](c1ccc(N2CCCc3c2cnc2cc(Cl)nn32)cc1)C(F)(F)F (relative stereo) [CPD0073979, (3rel-S)-N-[(1S)-1-[4-(4-chloro-2,3,7,10-tetrazatricyclo[7.4.0.0^2,6]trideca-1(9),3,5,7-tetraen-10-yl)phenyl]-2,2,2-trifluoro-ethyl]-1-(1-hydroxycyclopropanecarbonyl)-N-methyl-pyrrolidine-3-carboxamide]  75 nM
16. COc1ccc2ncc(Nc3ccc([C@H](N(C)C(=O)C4CCN(C(=O)CO)CC4)C(F)(F)F)cc3)c([C@H]3CCOC3)c2n1 [CPD0082481]  73 nM
17. COc1ccc2ncc(Nc3ccc([C@H](N(C)C(=O)C4CCN(C(=O)CO)CC4)C(F)(F)F)cc3)c([C@@H]3CCOC3)c2n1 [CPD0082482]  72 nM
18. C[C@@H]1CCc2c(cnc3cc(Cl)nn23)N1c1ccc([C@H](N(C)C(=O)[C@H]2CC[S@](=N)(=O)CC2)C(F)(F)F)cc1 (relative stereo) [CPD0074551, (1rel r 4rel r) N-[(1S)-1-[4-[(11-rel R)-4-chloro-11-methyl-2,3,7,10-tetrazatricyclo[7.4.0.0^2,6]trideca-1(9),3,5,7-tetraen-10-yl]phenyl]-2,2,2-trifluoro-ethyl]-1-imino-N-methyl-1-oxo-thiane-4-carboxamide]  57 nM
19. CO[C@@H](C)c1c(Nc2ccc([C@H](N(C)C(=O)C3CC4(C3)CS(=O)(=O)C4)C(F)(F)F)cc2)cnn2cc(Cl)nc12 [CPD0084934]  54 nM
20. CO[C@@H](C)c1c(Nc2ccc([C@H](N(C)C(=O)[C@H]3CC[S@](=N)(=O)CC3)C(F)(F)F)cc2)cnn2cc(Cl)nc12 (relative stereo) [CPD0082473, (1rel-r, 4rel-r) N-[(1S)-1-[4-[[2-chloro-8-[(1 S)-1-methoxyethyl]imidazo[1,2-b]pyridazin-7-yl]amino]phenyl]-2,2,2-trifluoro-ethyl]-1-imino-N-methyl-1-oxo-thiane-4-carboxamide]  52 nM
21. CN(C(=O)[C@@H]1CNC(=O)N1)[C@@H](c1ccc(N2CCCc3c2cnc2cc(Cl)nn32)cc1)C(F)(F)F (relative stereo) [CPD0075578, (4rel S)-N-[(1S)-1-[4-(4-chloro-2,3,7,10-tetrazatricyclo[7.4.0.0^2,6]trideca-1(9),3,5,7-tetraen-10-yl)phenyl]-2,2,2-trifluoro-ethyl]-N-methyl-2-oxo-imidazolidine-4-carboxamide]  51 nM
22. CO[C@@H](C)c1c(Nc2ccc([C@H](N(C)C(=O)[C@H]3CC[S@@](=N)(=O)CC3)C(F)(F)F)cc2)cnn2cc(Cl)nc12 (relative stereo) [CPD0082474, (1rel-s,4rel-s) N-[(1 S)-1-[4-[[2-chloro-8-[(1S)-1-methoxyethyl]imidazo[1,2-b]pyridazin-7-yl]amino]phenyl]-2,2,2-trifluoro-ethyl]-1-imino-N-methyl-1-oxo-thiane-4-carboxamide]  50 nM
23. CN(C(=O)C1CNC(=O)N1)[C@@H](c1ccc(N2CCCc3c2cnc2cc(Cl)nn32)cc1)C(F)(F)F (stereo in doubt) [CPD0075579, (4rel R)-N-[(1S)-1-[4-(4-chloro-2,3,7,10-tetrazatricyclo[7.4.0.0^2,6]trideca-1(9),3,5,7-tetraen-10-yl)phenyl]-2,2,2-trifluoro-ethyl]-N-methyl-2-oxo-imidazolidine-4-carboxamide]  44 nM
24. CO[C@@H](C)c1c(Nc2ccc([C@H](N(C)C(=O)C3CCN(C(=O)CO)CC3)C(F)(F)F)cc2)cnn2cc(Cl)nc12 [CPD0084141, N-[(1S)-1-[4-[[2-chloro-8-[(1S)-1-methoxyethyl]imidazo[1,2-b]pyridazin-7-yl]amino]phenyl]-2,2,2-trifluoro-ethyl]-1-(2-hydroxyacetyl)-N-methyl-piperidine-4-carboxamide]  43 nM
25. C[C@@H]1CCN(c2ccc([C@H](N(C)C(=O)[C@H]3CNC(=O)C3)C(F)(F)F)cc2)c2cnc3cc(Cl)nn3c21 [CPD0074560]  43 nM
26. CN1C[C@H](C(=O)N(C)[C@@H](c2ccc(N3CCCc4c3cnc3cc(Cl)nn43)cc2)C(F)(F)F)NC1=O (relative stereo) [CPD0075577]  42 nM
27. COc1ccc2ncc(Nc3ccc([C@H](N(C)C(=O)C4CCS(=O)(=O)CC4)C(F)(F)F)cc3)c([C@@H](C)O)c2n1 (relative stereo) [CPD0084256, N-methyl-1,1-dioxo-N-[(1S)-2,2,2-trifluoro-1-[4-[[4-[(1rel R)-1-hydroxyethyl]-6-methoxy-1,5-naphthyridin-3-yl]amino]phenyl]ethyl]thiane-4-carboxamide]  38 nM
28. C[C@H]1CCN(c2ccc([C@H](N(C)C(=O)[C@@H]3CNC(=O)C3)C(F)(F)F)cc2)c2cnc3cc(Cl)nn3c21 [CPD0074569]  30 nM
